Data taken from the NIST ThermoML archive (doi:10.1021/je034048e).

Assay: molar heat capacity at constant pressure
Settings: 101.33 kPa

CCCCCCCC/C=C/CCCCCCCC(=O)OCC(COC(=O)CCCCCCC/C=C/CCCCCCCC)OC(=O)CCCCCCC/C=C/CCCCCCCC [trielaidin]
Crystal
Settings	molar heat capacity at constant pressure [J/K/mol]
158.51 K	861.53
161.21 K	871.27
163.89 K	883.66
166.55 K	893.4
169.18 K	904.91
171.79 K	914.65
174.38 K	927.05
176.95 K	936.79
179.5 K	947.41
182.03 K	958.04
184.54 K	970.43
187.03 K	978.4
189.51 K	989.03
191.97 K	998.77
194.42 K	1008.5
196.84 K	1020
199.25 K	1028.9
201.65 K	1037.7
206.39 K	1058.1
208.74 K	1067.8
211.08 K	1077.6
213.41 K	1087.3
215.72 K	1097.9
218.01 K	1108.6
220.3 K	1117.4
222.57 K	1127.2
224.83 K	1137.8
227.07 K	1149.3
229.31 K	1160.8
231.53 K	1169.7
233.74 K	1180.3
235.94 K	1190.9
238.13 K	1201.5
240.31 K	1212.2
242.48 K	1222.8
244.64 K	1235.2

molar heat capacity at constant pressure [J/K/mol], Small (less than 1 g) adiabatic calorimetry
Settings	Crystal	Metastable crystal
158.69 K	–	917.31
160 K	867.72	920.85
161.6 K	–	932.36
164.51 K	–	946.53
167.42 K	–	962.46
170 K	912	973.98
170.34 K	–	977.52
176.16 K	–	1009.4
179.08 K	–	1022.7
180 K	947.41	1027.1
181.99 K	–	1043
184.9 K	–	1066.1
187.79 K	–	1080.2
190 K	991.68	1097.9
190.66 K	–	1104.1
193.5 K	–	1125.4
196.32 K	–	1147.5
199.11 K	–	1169.7
200 K	1036	1177.6
201.89 K	–	1191.8
204.65 K	–	1213.9
207.38 K	–	1237.8
210 K	1071.4	1257.3
210.1 K	–	1260
212.79 K	–	1280.3
215.47 K	–	1303.4
218.13 K	–	1322.8
220 K	1115.6	1337
220.78 K	–	1343.2
223.41 K	–	1362.7
226.02 K	–	1384.8
228.62 K	–	1405.2
230 K	1159.9	1416.7
231.2 K	–	1423.8
233.77 K	–	1443.3
236.32 K	–	1463.6
238.87 K	–	1484
240 K	1213	1496.4
241.4 K	–	1503.5
243.91 K	–	1523.8
246.41 K	–	1545.1
